Data as given in US4260745A, “3-Halo cephalosporins” (Eli Lilly and Company, priority 1979, dated 1981).
Converted amounts (≈) assume the structure as drawn. Read-outs that look alike come from different tables or passages of the source.

Key:
[1] = test system: Penicillin Resistant Staphylococcus; assay: Gradient Plate technique, MIC; assay type: cell-based; details: read-out: Minimum Inhibitory Concentration
Description: The following Table II lists the minimum inhibitory concentration (MIC) for 7-[2-(2-thienyl)acetamido]-3-chloro-3-cephem-4-carboxylic acid against penicillin resistant Staphylococcus both in the presence of and absence of serum. The MIC values were obtained by the Gradient Plate technique carried out essentially as described by Bryson and Szybalski, Science, 116, 45 (1952). […]

[2] = test system: Methicillin resistant Staphylococcus; assay: Gradient Plate technique, MIC; assay type: cell-based; details: Clinical Isolate X400 (methicillin resistant)
Aerobacter aerogenes = assay: Gradient Plate technique, MIC; assay type: cell-based; details: Klebsiella aerogenes, read-out: Minimum Inhibitory Concentration
Description: (§1) The following Table II lists the minimum inhibitory concentration (MIC) for 7-[2-(2-thienyl)acetamido]-3-chloro-3-cephem-4-carboxylic acid against penicillin resistant Staphylococcus both in the presence of and absence of serum. The MIC values were obtained by the Gradient Plate technique carried out essentially as described by Bryson and Szybalski, Science, 116, 45 (1952).
(§2) In Table III, below, the MIC values for the test compound of Tables I and II against representative gram-negative organisms is presented. The data were obtained by the Gradient Plate technique.
(§3) The minimum inhibitory concentrations for 7-[2-(2-thienyl)acetamido]-3-bromo-3-cephem-4-carboxylic acid against representative gram-negative bacteria is presented in Table VI. The data were obtained by the Gradient Plate Method.
(§4) Tables VII and VIII list the minimum inhibitory concentrations of the test compound effective against representative penicillin resistant Staphylococcus strains, while […] the MIC values obtained against representative gram-negative microorganisms. The data were obtained by the Gradient Plate method.

Escherichia coli = assay: Gradient Plate technique, MIC; assay type: cell-based; details: read-out: Minimum Inhibitory Concentration
Description: as §1, §2, §3, §4

Klebsiella pneumoniae = assay: Gradient Plate technique, MIC; assay type: cell-based; details: read-out: Minimum Inhibitory Concentration
Description: as §1, §2, §3, §4

Pseudomonas aeruginosa = assay: Gradient Plate technique, MIC; assay type: cell-based; details: read-out: Minimum Inhibitory Concentration
Description: as §1, §2, §3, §4

Salmonella heidelberg = assay: Gradient Plate technique, MIC; assay type: cell-based; details: Salmonella enterica, read-out: Minimum Inhibitory Concentration
Description: as §1, §2, §3, §4

Serratia marcescens = assay: Gradient Plate technique, MIC; assay type: cell-based; details: read-out: Minimum Inhibitory Concentration
Description: as §1, §2, §3, §4

Shigella sp. = assay: Gradient Plate technique, MIC; assay type: cell-based; details: read-out: Minimum Inhibitory Concentration
Description: as §1, §2, §3, §4

Aspergillus flavus E = assay: standard agar dilution method, MIC; assay type: cell-based; details: read-out: Minimum Inhibitory Concentration
Description: (§5) In Table IX which follows, the MIC values against a spectrum of microorganisms obtained with the test compound are presented. The test method was the standard agar dilution method.

[3] = test system: Bordetella bronchiseptica 16; assay: standard agar dilution method, MIC; assay type: cell-based; details: read-out: Minimum Inhibitory Concentration
Description: as §5

Candida tropicalis A17 = assay: standard agar dilution method, MIC; assay type: cell-based; details: read-out: Minimum Inhibitory Concentration
Description: as §5

Ceratocystis ulmi = assay: standard agar dilution method, MIC; assay type: cell-based; details: read-out: Minimum Inhibitory Concentration
Description: as §5

Citrobacter freundii = assay: standard agar dilution method, MIC; assay type: cell-based; details: read-out: Minimum Inhibitory Concentration
Description: as §5

[4] = test system: Enterobacter aerogenes EB17; assay: standard agar dilution method, MIC; assay type: cell-based; details: Klebsiella aerogenes, read-out: Minimum Inhibitory Concentration
Description: as §5

Erwinia amylovora = assay: standard agar dilution method, MIC; assay type: cell-based; details: read-out: Minimum Inhibitory Concentration
Description: as §5

Escherichia coli EC14 = assay: standard agar dilution method, MIC; assay type: cell-based; details: read-out: Minimum Inhibitory Concentration
Description: as §5

[5] = test system: Klebsiella pneumoniae KL14; assay: standard agar dilution method, MIC; assay type: cell-based; details: read-out: Minimum Inhibitory Concentration
Description: as §5

Proteus morganii PR15 = assay: standard agar dilution method, MIC; assay type: cell-based; details: Morganella morganii, read-out: Minimum Inhibitory Concentration
Description: as §5

[6] = test system: Pseudomonas aeruginosa X239; assay: standard agar dilution method, MIC; assay type: cell-based; details: read-out: Minimum Inhibitory Concentration
Description: as §5

[7] = test system: Pseudomonas solanacearcum X185; assay: standard agar dilution method, MIC; assay type: cell-based; details: read-out: Minimum Inhibitory Concentration
Description: as §5

Salmonella typhimurium = assay: standard agar dilution method, MIC; assay type: cell-based; details: Salmonella enterica, read-out: Minimum Inhibitory Concentration
Description: as §5

Salmonella typhosa SA12 = assay: standard agar dilution method, MIC; assay type: cell-based; details: Salmonella enterica, read-out: Minimum Inhibitory Concentration
Description: as §5

Serratia marcescens SE3 = assay: standard agar dilution method, MIC; assay type: cell-based; details: read-out: Minimum Inhibitory Concentration
Description: as §5

[8] = test system: Staphylococcus aureus 3055; assay: standard agar dilution method, MIC; assay type: cell-based; details: read-out: Minimum Inhibitory Concentration
Description: as §5

[9] = test system: Staphylococcus aureus 3074; assay: standard agar dilution method, MIC; assay type: cell-based; details: read-out: Minimum Inhibitory Concentration
Description: as §5

[10] = test system: Streptococcus faecalis X66; assay: standard agar dilution method, MIC; assay type: cell-based; details: Enterococcus faecalis, read-out: Minimum Inhibitory Concentration
Description: as §5

[11] = test system: Trichophyton mentagrophytes 27; assay: standard agar dilution method, MIC; assay type: cell-based; details: read-out: Minimum Inhibitory Concentration
Description: as §5

Electrometric titration = assay type: physicochemical; details: 66% aqueous dmf; only or first pKa; read-out: pKa
bioautogram = assay type: cell-based
Description: To 110 ml. of methanol and 83 mg. of pre-reduced 5 percent palladium on carbon were added 83 mg. of p-nitrobenzyl 7-[2-(2-thienyl)acetamido]-3-fluoro-3-cephem-4-carboxylate. The mixture was hydrogenated at 53 psig. for one hour. The resulting mixture was filtered, the filtered catalyst was washed with methanol, and the methanol washings were added to the filtrate. The filtrate was then evaporated in vacuo. The residue was dissolved in ethyl acetate, and the ethyl acetate solution was extracted with dilute aqueous sodium bicarbonate. The sodium bicarbonate solution was washed with ethyl acetate, layered with ethyl acetate, and dilute aqueous HCl was added.

**Q.** With `O=CO[C@@H](C(=O)NC1C(=O)N2C(C(=O)O)=C(Cl)CSC12)c1ccccc1` (stereo partly drawn) [7-[O-(Formyl)-D-mandelamido]-3-chloro-3-cephem-4-carboxylic acid] as the molecule, how does the MIC ([1]; Clinical Isolate V 32, No Serum) read?
**A.** 8 µg/mL (≈ 20.2 µM)

**Q.** What about the MIC ([1]; Clinical Isolate V 32, Serum) of the same molecule?
**A.** > 20 µg/mL

**Q.** And the MIC ([1]; Clinical Isolate V 41, No Serum)?
**A.** 5.8 µg/mL (≈ 14.6 µM)

**Q.** And the MIC ([1]; Clinical Isolate V 41, Serum)?
**A.** > 20 µg/mL

**Q.** What about the MIC ([1]; Clinical Isolate V 84, No Serum) of the same molecule?
**A.** 0.4 µg/mL (≈ 1.01 µM)

**Q.** And the MIC ([1]; Clinical Isolate V 84, Serum)?
**A.** 1 µg/mL (≈ 2.52 µM)

**Q.** And the MIC ([1]; Clinical Isolate X 1.1, No Serum)?
**A.** < 0.1 µg/mL

**Q.** And the MIC ([1]; Clinical Isolate X 1.1, Serum)?
**A.** < 0.1 µg/mL

**Q.** What about the “Minimum Inhibitory Concentration” value ([2]; Serum) of the same molecule?
**A.** > 20 µg/mL

**Q.** What about the MIC ([2]; Staphylococcus, No Serum, read-out: Minimum Inhibitory Concentration) of the same molecule?
**A.** > 20 µg/mL

**Q.** And the MIC (Aerobacter aerogenes)?
**A.** 0.7 µg/mL (≈ 1.76 µM)

**Q.** And the MIC (Escherichia coli)?
**A.** 6.3 µg/mL (≈ 15.9 µM)

**Q.** What about the MIC (Klebsiella pneumoniae) of the same molecule?
**A.** 1 µg/mL (≈ 2.52 µM)

**Q.** What about the MIC (Pseudomonas aeruginosa) of the same molecule?
**A.** > 200 µg/mL

**Q.** And the MIC (Salmonella heidelberg)?
**A.** 0.6 µg/mL (≈ 1.51 µM)

**Q.** And the MIC (Serratia marcescens)?
**A.** 160 µg/mL (≈ 403 µM)

**Q.** And the MIC (Shigella sp.)?
**A.** 4 µg/mL (≈ 10.1 µM)

**Q.** And the MIC (Aspergillus flavus E)?
**A.** > 128 µg/mL

**Q.** What about the MIC [3] of the same molecule?
**A.** 64 µg/mL (≈ 161 µM)

**Q.** What about the MIC (Candida tropicalis A17) of the same molecule?
**A.** > 128 µg/mL

**Q.** And the MIC (Ceratocystis ulmi)?
**A.** > 128 µg/mL

**Q.** What about the MIC (Citrobacter freundii) of the same molecule?
**A.** > 128 µg/mL

**Q.** And the MIC [4]?
**A.** 128 µg/mL (≈ 323 µM)

**Q.** What about the MIC (Erwinia amylovora) of the same molecule?
**A.** > 128 µg/mL

**Q.** What about the MIC (Escherichia coli EC14) of the same molecule?
**A.** 8 µg/mL (≈ 20.2 µM)

**Q.** And the MIC [5]?
**A.** 4 µg/mL (≈ 10.1 µM)

**Q.** What about the MIC (Proteus morganii PR15) of the same molecule?
**A.** 4 µg/mL (≈ 10.1 µM)

**Q.** What about the MIC [6] of the same molecule?
**A.** 128 µg/mL (≈ 323 µM)

**Q.** What about the MIC [7] of the same molecule?
**A.** 128 µg/mL (≈ 323 µM)

**Q.** And the MIC (Salmonella typhimurium)?
**A.** 1 µg/mL (≈ 2.52 µM)

**Q.** And the MIC (Salmonella typhosa SA12)?
**A.** 0.5 µg/mL (≈ 1.26 µM)

**Q.** And the MIC (Serratia marcescens SE3)?
**A.** > 128 µg/mL

**Q.** And the MIC [8]?
**A.** > 0.25 µg/mL

**Q.** What about the MIC [9] of the same molecule?
**A.** 1 µg/mL (≈ 2.52 µM)

**Q.** And the MIC [10]?
**A.** 64 µg/mL (≈ 161 µM)

**Q.** And the MIC [11]?
**A.** > 128 µg/mL

**Q.** What about the pKa (Electrometric titration) of the same molecule?
**A.** 4.5

**Q.** With `COC(=O)C1=C(O)CS[C@@H]2C(NC(=O)COc3ccccc3)C(=O)N12` (stereo partly shown) [Example 9, Methyl 7-phenoxyacetamido-3-hydroxy-3-cephem-4-carboxylate] as the molecule, how does the pKa (Electrometric titration) read?
**A.** 5.6

**Q.** With `O=C(Cc1cccs1)NC1C(=O)N2C(C(=O)OCc3ccc([N+](=O)[O-])cc3)=C(O)CS[C@H]12` (stereo partly shown) [Example 12, p-Nitrobenzyl 7-[2-(2-thienyl)acetamido]-3-hydroxy-3-cephem-4-carboxylate] as the molecule, how does the pKa (Electrometric titration) read?
**A.** 5.9

**Q.** Which “biological activity by bioautogram” value (bioautogram) does the source give for `O=C(Cc1cccs1)NC1C(=O)N2C(C(=O)O)=C(F)CS[C@H]12` (stereo partly shown) [7-[2-(2-Thienyl)acetamido]-3-fluoro-3-cephem-4-carboxylic acid] here?
**A.** biologically active
